Laboratory results from patent US9738675B2, “Water-soluble photochromic compound” (RIKKYO EDUCATIONAL CORPORATION, priority 2012, dated 2017).

Columns and labels:
[1] = Assessment of water-solubility; format: physicochemical; conditions: assessed similarly to Example 1
Method: The water solubility of a compound of formula (I-2) was assessed similarly to Example 1, to check that the compound is water soluble.

[2] = Photochromic property: absorption and fluorescence spectra in solution; format: physicochemical
Method: The spectrum of the open ring form is shown by dotted line 10. Irradiation with the UV light (313 nm) turned the solution purple, and a spectrum shown by solid line 20 was observed.
The water solubility of a compound of formula (I-2) was assessed similarly to Example 1, to check that the compound is water soluble. Specifically, the compound of (1-2) was dissolved in a small amount of methanol (0.2 mL), and distilled water (4 mL) was added to prepare a 95% aqueous solution, and an absorption spectrum of FIG. 2 (by Hitachi, using U-4100) was obtained as a result. The spectrum of the open ring form is shown by dotted line 10. Irradiation with a UV light (313 nm) turned the solution yellow, and a spectrum shown by solid line 20 was observed. In addition, the irradiation with the UV light made the compound fluorescent, and a spectrum of solid line 30 was obtained.
Curve 10 is a spectrum of the compound (open ring form) of formula (I-3), and the maximum absorption wave length was 254 nm. Then, an aqueous solution of the compound of formula (I-3) was irradiated with light of 254 nm to obtain a photostationary state (PSS), in which the ring closing reaction has ended. The spectrum at this state is shown as curve 20. The maximum absorption wavelength of the closed ring form was 595 nm.
About 0.5 mg of the given compound was dissolved in each of 0.5 mL of water/methanol (weight rate of 90/10) and 0.5 mL of only methanol to prepare a solution. For convenience, the former will be referred to as an aqueous solution, and the latter will be referred to as a methanol solution. Curve 10 is a spectrum of the compound of formula (I-4) (open ring form). In the methanol solution, the maximum absorption wavelength is 450 nm, and the molar absorption coefficient was 39000 M^−1 cm^−1. The absorption disappeared when irradiated with visible light, and the solution returned to a colorless state. Curve 20 is a spectrum of the closed ring form. […] Further, the fluorescence disappeared when the compound returned to the open ring form.
In the aqueous solution, the maximum absorption wavelength of the open ring form was 458 nm, and the molar absorption coefficient was 36000 M^−1 cm^−1. The absorption disappeared when irradiated with visible light, and the solution returned to a colorless state. […] Further, the fluorescence disappeared when the compound returned to the open ring form.

[3] = 95% aqueous solution, UV 313 nm

Cc1sc(C(=O)O[C@@H]2[C@H](O)[C@@H](O)[C@H](O)[C@@H](O)[C@@H]2O)cc1C1=C(c2cc(C(=O)O[C@@H]3[C@H](O)[C@@H](O)[C@H](O)[C@@H](O)[C@@H]3O)sc2C)C(F)(F)C(F)(F)C1(F)F [I-3]
water solubility [1]: water soluble
maximum absorption wave length, open ring form ([2]; aqueous solution): 254 nm
maximum absorption wavelength, closed ring form ([2]; aqueous solution, photostationary state after 254 nm light): 595 nm
photochromism ([2]; aqueous solution, visible light longer than 600 nm): reversible photochromism

CC1=C(C2=C(C3=C(C)S(=O)(=O)c4cc(CO[C@@H]5O[C@H](CO)[C@@H](O)[C@H](O)[C@H]5O)ccc43)C(F)(F)C(F)(F)C2(F)F)c2ccc(CO[C@@H]3O[C@H](CO)[C@@H](O)[C@H](O)[C@H]3O)cc2S1(=O)=O [I-2]
water solubility [1]: water soluble
colour of solution after irradiation with UV light [2, 3]: yellow
fluorescence after irradiation with UV light [2, 3]: fluorescent
